According to patent US11998589B2, “PEGylated peptide amphiphile nanofibers and methods of use” (Northwestern University, priority 2020, dated 2024):
Square brackets hold non-standard residues; d marks the D form. Peptide text beside a SMILES is read from it. * marks the point of attachment. PEG10 = NCCOCCOCCOCCOCCOCCOCCOCCOCCOCCOCCC(=O)O; Palmitoyl = CCCCCCCCCCCCCCCC(=O)*

What was measured:
[1] = test system: Human mesenchymal stem cells; assay: Alkaline phosphatase (ALP) activity, osteogenic differentiation; type: cell-based; conditions: human MSCs, one week
Procedure: Alkaline Phosphatase Activity: Human mesenchymal stem cells were obtained from Lonza and maintained in Mesenchymal Stem Cell Growth Media (Lonza). Cells were used for experiments prior to passage 6. Cells were trypsinized and resuspended in growth media containing high glucose DMEM supplemented with 10% FBS and 1% penicillin/streptomycin and 50 mg/L sodium ascorbate. 500 μl of the cell suspension was placed in each well of a 24 well plate and incubated for 24 hours. Media was removed and replaced with 540 μl of growth media or osteogenic media containing low glucose DMEM supplemented with 10% FBS, 50 mg/L sodium ascorbate 10 mM 3-glycerophosphate, and 100 nM dexamethasone. 60 μl of a 10 times concentrated PA solution in PBS was then added to each well. Every 3-4 days, media was replaced by removing 300 μl media and adding 270 μl growth media or osteogenic media and 30 μl of the 10 times concentrated PA solution in PBS. Alkaline phosphatase (ALP) activity was determined using the SensoLyte pNPP ALP Assay Kit (Anaspec, Fremont, CA) according to the manufacturer's instructions. […] The supernatant was mixed with the assay's detection buffer in a microplate and the optical absorbance was read after a four-hour incubation using a Cytation 3 microplate reader. […]

[2] = Zeta potential of PA solutions; type: physicochemical; conditions: for surface charge (zeta-potential), sign: neutral pH
Procedure: Zeta potential: Heat-treated PA solutions were diluted 20 times in 30 mM NaCl with 10 mM HCl, 30 mM NaCl, or 30 mM NaCl with 10 mM NaOH for pH 2, pH 7, and pH 12 respectively. For each PA, three separate samples were prepared at each pH. Samples were loaded in a disposable folded capillary cell and zeta-potential was measured at 25° C. using a Zetasizer Nano ZS (Malvern Instruments, Malvern, UK). The average of the three measurements for each sample was plotted.

[3] = Cytotoxicity (calcein / ethidium homodimer live-dead staining); type: cell-based; conditions: human, nHLF cultures, 36 hours culture; for viability at 36 h: normal human lung fibroblasts (nHLF), up to 100 μM PA, read-out: cells staining positive for calcein (percent viable cells)
Procedure: Cytotoxicity: Normal Human Lung Fibroblasts were obtained from Lonza and maintained in growth medium consisting of DMEM with 10% fetal bovine serum (FBS) and 1% penicillin/streptomycin. Cells (passage 5) were tryspinized and resuspended in media containing 2% FBS and 150 μl of the cell suspension was added to each well of a 96 well microplate for a total of 2,500 cells per well. After 2 hours attachment, 50 μl PA solutions diluted in PBS to 4 μM, 20 μM, 100 μM, or 400 μM were added to each well. After 36 hours culture, the media was removed and replaced with a solution of 2 μM calcein and 4 μM ethidium homodimer in PBS. After 30 minutes, cells were imaged using a Cytation 3 microplate reader. Live and Dead cells were counted using the MATLAB image Processing Toolbox to determine viability.

[4] = Nile red assay of aggregation; type: physicochemical; conditions: buffers of 0 mM, 15 mM and 150 mM NaCl
Procedure: Nile Red Assay: Following heat treatment, PA solutions were serially diluted in water (0 mM NaCl), or a buffer of 15 mM NaCl, or 150 mM NaCl. A solution of 100 μM Nile red was added to the PA solutions to one thousandth the total volume and incubated for 1 hour. The fluorescence spectrum was read from 600 nm to 700 nm using a BioTek Cytation 3 microplate reader using 560 nm excitation and the fluorescence shift was determined by subtracting the maximum […] wavelength for each sample from that of the dye solution diluted in each buffer alone.

[5] = Resuspension of purified PA in water; type: physicochemical; conditions: purified molecule in water
Procedure: Solubilization and Heat Treatment: PA powders were resuspended to 10 mM in water for experiments at pH 7, in 10 mM hydrochloric acid for pH 2 and 10 mM sodium hydroxide for pH 12. After resuspension, 1 M sodium hydroxide or 1 M hydrogen chloride were added to achieve the desired pH. To co-assemble PA molecules, PA solutions were mixed volumetrically, bath sonicated for 1 hour and then left on the bench to age for at least 2 hours. A solution of 150 mM NaCl was added to all samples to achieve a final NaCl concentration of 30 mM. All samples were heat treated at 80° C. for 30 minutes followed by gradual cooling by 1° C. per minute to 25° C.
To produce PA filaments without ionic charge, a short PEG chain was substituted for the ionizable amino acids typically included in PA molecules to maintain solubility of the PA in an aqueous environment. To form an uncharged PA filament, the sequence N-palmitoyl-VVAA was chosen as the aliphatic tail and hydrogen bonding peptide. As the hydrophilic domain, a 10-mer PEG amino acid was selected, which was hypothesized to be long enough to solubilize the PA while limiting steric repulsion among assembled molecules (PA1, FIG. 2A). The PA was synthesized by coupling the PEG amino acid to a rink-amide resin and completing the peptide using standard Fmoc solid phase peptide synthesis, leaving an uncharged amide group after cleavage from the resin. […]

Compound	surface charge (zeta-potential), sign [2]	viability at 36 h [3] [%]	aggregation as indicated by redshift in Nile red fluorescence, dependence on ionic strength [4]	other results
CCCCCCCCCCCCCCCC(=O)N[C@H](C(=O)N[C@H](C(=O)N[C@@H](C)C(=O)N[C@@H](C)C(=O)N[C@@H](CCC(=O)O)C(=O)N[C@@H](CCC(=O)O)C(N)=O)C(C)C)C(C)C [PA2] (Palmitoyl-VVAAEE-NH2)	negatively	> 85	depended on ionic strength of the buffer	ALP activity (osteogenic differentiation) in growth media ([1]; growth media, various PA concentrations): increased with increasing PA2 concentration; ALP activity (osteogenic differentiation) in osteogenic media ([1]; osteogenic media with dexamethasone and β-glycerophosphate): did not affect differentiation
N-palmitoyl-VVAAEE-PEG10 [PA4]				Zeta-potential (surface charge) ([2]; pH 2): ~0 mV
CCCCCCCCCCCCCCCC(=O)N[C@H](C(=O)N[C@H](C(=O)N[C@@H](C)C(=O)N[C@@H](C)C(=O)NCCOCCOCCOCCOCCOCCOCCOCCOCCOCCOCCC(N)=O)C(C)C)C(C)C [PA1] (Palmitoyl-VVAA[PEG10]-NH2)		> 85		solubility in water (resuspension) [5]: readily resuspended in water
N-palmitoyl-VVAAKK-PEGio [PA5]				Zeta-potential (surface charge) ([2]; pH 12): ~0 mV
CCCCCCCCCCCCCCCC(=O)N[C@H](C(=O)N[C@H](C(=O)N[C@@H](C)C(=O)N[C@@H](C)C(=O)N[C@@H](CCCCN)C(=O)N[C@@H](CCCCN)C(N)=O)C(C)C)C(C)C [PA3] (Palmitoyl-VVAAKK-NH2)	positively charged		less dependent on ionic strength than PA2	EC50 at 36 h ([3]; Normal Human Lung Fibroblasts (nHLF)): 25 ± 4 µM
